PubChem BioAssay AID743464 (Broad Institute, 2014)
Calls of active or inactive are those of the source.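 The calls were made as follows: active = fitted curve of COX8b expression increase reaching level 40 at or below the top valid tested dose; inconclusive = flat fit between 30 and 70, or poor fit; inactive = the rest.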

Experiments:
[1] = change in PGC-1a target gene COX8b expression, dose response, C2C12 myotubes, RT-qPCR, cherry-pick (AID 743464); settings: C2C12 myotubes, COX8b mRNA qPCR (delta-delta-Ct)
[2] = system: C2C12 myotubes, COX8b mRNA qPCR (delta-delta-Ct); assay: as above

SMILES	COX8b expression increase ([1]; at 19.5 µM (top of the series))	AC40 [2]	other results
COc1ccccc1C#Cc1ccc([C@H]2[C@H](C#N)N(C(=O)C3CCCC3)[C@H]2CO)cc1	21.2 unspecified (inactive)	–	–
CCCN(CC)c1ncnc2[nH]ncc12	–	17.5 µM	–
Cc1cc2c(c(/C=C/C(=O)c3ccccc3)c1)OC1(C=C2)Oc2ccccc2C(=O)N1C (centres undefined)	21.7 unspecified (inactive)	–	–
Cc1ccc(S(=O)(=O)N(C)C[C@H]2Oc3cc(C#Cc4ccncc4)ccc3S(=O)(=O)N([C@H](C)CO)C[C@H]2C)cc1	–	19.3 µM	–
C[C@H]1CN([C@@H](C)CO)S(=O)(=O)c2ccc(-c3ccccc3)cc2O[C@@H]1CN(C)Cc1cccc(F)c1	-3.3 unspecified (inactive)	–	–
CS(=O)c1nc(-c2ccc(Br)cc2)cc(-c2ccccc2)c1C#N (centres undefined)	6.29 unspecified (inactive)	–	–
O=C(Nc1ccc(N2CCN(Cc3ccccc3F)CC2)cc1)c1ccc([N+](=O)[O-])o1	–	10.4 µM	–
O=c1[nH]c2ccccc2n1C1CCN(C(c2cc3ccccc3o2)c2nnnn2Cc2ccccc2)CC1 (centres undefined)	12.6 unspecified (inactive)	–	–
Cc1cccc(NC(=O)CNC(=O)Cn2ncc(Cl)c(Cl)c2=O)c1C	–	> 19.5 µM (inactive)	–
COC(=O)c1nn(-c2ccccc2)ccc1=O	3.82 unspecified (inactive)	–	–
Cc1ccc(-c2nc(NC(=O)c3nn(C)cc3[N+](=O)[O-])sc2C)cc1	8.83 unspecified (inactive)	–	–
C#CCN(C[C@@H]1[C@@H](OC(=O)NCCCCCC)[C@@H](OC(=O)NCCCCCC)Cn2c(=O)ccc(=O)n21)S(=O)(=O)c1ccc(C)cc1	4.23 unspecified (inactive)	–	–
Cc1ccc(S(=O)(=O)N(C)C[C@@H]2Oc3cc(C#Cc4ccncc4)ccc3S(=O)(=O)N([C@@H](C)CO)C[C@H]2C)cc1	–	> 19.5 µM (inactive)	–
O=C(Nc1ccc(C(F)(F)F)cc1)N1C[C@@H]2N[C@H](C1)C2c1ccc(-c2ccccc2)cc1 (some centres undefined)	–	> 19.5 µM (inactive)	–
CCOc1cc(CNC2CCCC2)cc(Cl)c1OCc1ccc(F)cc1	0.737 unspecified (inactive)	–	–
Cc1ccc(Cn2ncc(Cl)c(Cl)c2=O)cc1	–	> 19.5 µM (inactive)	–
Cc1nc2ccccn2c1C(=O)/C=C/c1ccc(F)cc1	-3.59 unspecified (inactive)	–	–
C[C@H](CO)N1C[C@H](C)[C@@H](CN(C)Cc2cccnc2)Oc2cc(C#CC3CCCCC3)ccc2S1(=O)=O	0.89 unspecified (inactive)	–	–
COc1ccccc1C#Cc1ccc2c(c1)O[C@@H](CN(C)Cc1cccnc1)[C@H](C)CN([C@H](C)CO)S2(=O)=O	–	> 19.5 µM (inactive)	–
Cc1cc(C)cc(OC(=O)CS(=O)c2ccc(C(F)(F)F)cc2[N+](=O)[O-])c1 (centres undefined)	-6.23 unspecified (inactive)	–	–
COCCSc1ccccc1C(=O)Nc1cc(C)on1	3.36 unspecified (inactive)	–	–
O=C(C[C@H]1CC[C@@H](NC(=O)c2ccccc2)[C@H](CO)O1)Nc1ccc(-c2ccccc2)cc1	-12.4 unspecified (inactive)	–	–

SMILES	COX8b expression increase ([1]; at 19.5 µM (top of the series))	AC40 [2]	other results
O=c1cc(CSc2ccccn2)[nH]c(=O)[nH]1	-6.81 unspecified (inactive)	–	–
CCN(CC(=O)NCc1ccc(Cl)cc1)C(=O)CSCC(=O)Nc1ccc(C)cc1	0.86 unspecified (inactive)	–	–
Cc1nc(Nc2ccc(S(N)(=O)=O)cc2)sc1C(=O)Nc1ccccc1	-1.19 unspecified (inactive)	–	–
Cc1ccc(S(=O)(=O)N(C)C[C@@H]2Oc3cc(C#Cc4ccncc4)ccc3S(=O)(=O)N([C@H](C)CO)C[C@H]2C)cc1	–	> 19.5 µM (inactive)	–
CC[C@H](C)[C@H](NC(=O)c1ccc(Cl)cc1)C(=O)OCC(=O)c1ccc2c(c1)NC(=O)CO2	-1.89 unspecified (inactive)	–	–
CC1=C(Cl)C2=NS(=O)(=O)CCN2C=C1Cl	6.22 unspecified (inactive)	–	–
CCN1CCN(Cc2ccc(NC(=O)c3cc(NC(=O)c4cncc(-c5ccc(C#N)cc5)c4)cc(OC)c3)cc2C(F)(F)F)CC1	-3 unspecified (inactive)	–	–
COc1ccccc1-c1ccc([C@@H]2[C@@H]3CN(S(=O)(=O)c4ccc(-c5ccccc5)cc4)C[C@H]2N3)cc1	–	> 19.5 µM (inactive)	–
CCn1nc(/C=C/c2ccccc2)nc2c(=O)n(C)c(=O)nc1-2	–	0.78 µM	–
OC(c1cc(C(F)(F)F)nc2c(C(F)(F)F)cccc12)C1CCCCN1 (centres undefined)	1.68 unspecified (inactive)	–	–
C=CS(=O)(=O)N(Cc1ccccc1Br)[C@H](CO)Cc1ccccc1	–	> 19.5 µM (inactive)	–
Nc1ncnc(NCc2ccc(F)cc2)c1[N+](=O)[O-]	1.72 unspecified (inactive)	–	–
CCN1CCN(Cc2ccc(NC(=O)c3ccc(C)c(NC(=O)c4c[nH]c5cc(C(F)(F)F)ccc5c4=O)c3)cc2C(F)(F)F)CC1	15.7 unspecified (inactive)	–	–
COc1ccc(C(=O)Nc2cccc(NC(=O)c3ccc(OC)c(OC)c3)n2)cc1OC	7.85 unspecified (inactive)	–	–
O=C(Nc1cccc(F)c1)N1CC(=O)N2[C@@H](CO)[C@@H](c3ccc(C#Cc4cccnc4)cc3)[C@@H]2C1	–	> 19.5 µM (inactive)	–
C[C@H](CO)N1C[C@H](C)[C@@H](CN(C)C(=O)C2CCCCC2)Oc2cc(C#Cc3ccncc3)ccc2S1(=O)=O	9.62 unspecified (inactive)	–	–
N#Cc1ccc(-c2ccc(C3[C@@H]4CN(S(=O)(=O)c5ccc(F)cc5)C[C@H]3N4)cc2)cc1 (some centres undefined)	–	> 19.5 µM (inactive)	–
Cc1ccccc1-n1nnnc1Sc1nnnn1-c1ccccc1	9.68 unspecified (inactive)	–	–
Cn1nnnc1SCC(=O)NCc1cccc(C(=O)O)c1	-7.14 unspecified (inactive)	–	–
N#Cc1cc(Oc2cccc3cccnc23)c(-n2nnc3ccccc32)cc1C#N	–	–	COX8b expression increase ([1]; at 6.8 µM (top of the series)): -21.9 unspecified (inactive)
CCOC(=O)c1c2c(n(C)c1C)C(=O)C(=O)c1ccc(Br)cc1-2	–	16.8 µM	–
Cc1ccc(-c2ccc(C3[C@@H]4CN(C(=O)Nc5ccc(C(F)(F)F)cc5)C[C@H]3N4)cc2)cc1 (some centres undefined)	–	> 19.5 µM (inactive)	–
